Experiments:
diamine oxidase = target: T1, diamine oxidase (Homo sapiens, UniProt P19801); assay: in vitro comparison of chloroquine phosphate enantiomers for inhibition of diamine oxidase; type: biochemical; conditions: compared between enantiomers of chloroquine phosphate
T1 sequence (P19801 20-751): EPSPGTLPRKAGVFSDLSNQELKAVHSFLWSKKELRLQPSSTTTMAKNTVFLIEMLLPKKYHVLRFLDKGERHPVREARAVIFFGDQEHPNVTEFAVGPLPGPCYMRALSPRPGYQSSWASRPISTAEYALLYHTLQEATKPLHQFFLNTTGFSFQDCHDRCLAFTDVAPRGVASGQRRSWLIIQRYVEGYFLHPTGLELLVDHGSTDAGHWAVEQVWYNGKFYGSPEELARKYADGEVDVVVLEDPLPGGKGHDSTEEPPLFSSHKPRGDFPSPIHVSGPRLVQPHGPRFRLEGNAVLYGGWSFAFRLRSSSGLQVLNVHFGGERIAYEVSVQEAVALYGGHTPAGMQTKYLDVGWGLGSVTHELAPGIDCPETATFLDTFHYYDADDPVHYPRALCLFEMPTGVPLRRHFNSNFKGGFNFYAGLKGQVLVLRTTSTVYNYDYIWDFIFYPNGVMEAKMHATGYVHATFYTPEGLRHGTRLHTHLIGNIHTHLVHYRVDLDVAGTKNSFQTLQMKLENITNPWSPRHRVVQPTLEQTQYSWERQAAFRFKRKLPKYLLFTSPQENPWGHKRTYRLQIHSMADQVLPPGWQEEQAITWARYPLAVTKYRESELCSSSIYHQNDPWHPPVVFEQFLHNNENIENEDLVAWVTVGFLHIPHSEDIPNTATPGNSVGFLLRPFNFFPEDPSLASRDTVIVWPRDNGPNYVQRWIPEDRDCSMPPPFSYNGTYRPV
Description: (§1) Enantiomers of chloroquine phosphate were isolated according to the procedure of Stalcup, A. M. et al. (1996), Analytical Chemistry 68:2248-50. Comparisons of these enantiomers with respect to ability to inhibit diamine oxidase and bind to neuromelanin are performed in vitro.

[1] = in vitro comparison of chloroquine phosphate enantiomers for binding to neuromelanin; conditions: compared between enantiomers of chloroquine phosphate
Description: as §1

Parkinson's Disease = conditions: cited from earlier work

Row | SMILES | ability to inhibit diamine oxidase (diamine oxidase) | ability to bind neuromelanin [1] | delay of the need to commence L-DOPA treatment (Parkinson's Disease; American researchers) | increase in patient mortality (Parkinson's Disease; co-administered with L-DOPA, compared to the group treated with L-DOPA only) | neural protection (Parkinson's Disease; two-year patient follow-up examinations)
1 | CCN(CC)CCCC(C)Nc1ccnc2cc(Cl)ccc12 (single isomer, unassigned) [active enantiomer] | significantly enhanced ability | significantly enhanced ability |  |  | 
2 | C#CCN(C)[C@H](C)Cc1ccccc1 [Deprenyl] |  |  | up to nine months | 60% | no neural protection was found

From patent US6417177B1, “Chloroquine derivatives for the treatment of Parkinson's disease” (Alpha Research Group, LLC, priority 1999, dated 2002)
